According to US9273304B2, “Inactivation method” (Thermo Fisher Scientific Baltics UAB, priority 2006, dated 2016):

Tested on: CFTR gene / insulin gene, human DNA
Experiment: PCR comparison with commercial hot-start Taq DNA polymerases (sensitivity, Fast PCR, extension time)
Type: biochemical
Description: Sets of PCR reactions were carried out in the Mastercycler (Eppendorf). The reactions were carried out with the following amounts of DNA polymerases: 0.3125 activity units, 0.625 activity units, 1.25 activity units, and 2.5 activity units. These sets of PCR were performed under conditions optimal for each DNA polymerase. The buffers for both the modified DNA polymerase of the current invention and the unmodified DNA polymerase were described in the Examples 7 and 11, while the buffers for the commercial DNA polymerases were those recommended by the vendors. All experiments were performed in the presence of 0.2 mM dNTP, 0.5 μM of each primers and human DNA (100 ng/50 μl). The PCR primers for amplification of the CFTR gene were described in the Example 8.
The PCR components were mixed at room temperature and the reaction was carried using the following cycling profile: 95° C.—4 min; (95° C.—0.5 min, 50° C.—0.5 min, 72° C.—1 min)—40 cycles; 72° C.—7 min, with the exception of the experiments with the HotStarTaq DNA polymerase, were 15 min pre-incubation at 95° C. was used, as recommended by the vendor.
Amplifications and analysis of reaction products were performed as described in the Example 12. The 1.25 activity units of each polymerase were used in the PCR. The following amounts of human DNA were used as templates in the PCR: 0.1 ng, 1 ng, 10 ng, and 100 ng.
Amplifications and analysis of PCR products were performed as described in the Example 12. The 1.25 activity units of each polymerase were used in the PCR. The set of PCR reactions was carried out at 20, 25, 30, 35 and 40 thermal cycles. respectively.
Sets of PCR reactions were carried out in the GeneAmp® PCR System 9700 (Applied Biosystems). The reactions were carried out with 1 activity unit of DNA polymerases. These sets of PCR reactions were performed in 20 μl of the buffers optimal for each. DNA polymerase. The buffers for the modified Tag polymerase and the unmodified Taq DNA polymerases were described in the Examples 7 and 11, while the buffers for the commercial DNA polymerases were those recommended by the vendors. The following commercial DNA polymerases were chosen for comparison: the FastStart Taq DNA polymerase (Roche), the AmpliTaq Gold DNA polymerase (Applied Biosystems), and the HotStarTaq DNA polymerase (Qiagen). All experiments were performed in the presence of 0.2 mM dNTP, 0.5 μM of each PCR primer and human DNA (40 ng/20 μl). The following primers were used for amplification of the insulin gene: […]
The PCR components were mixed in thin-walled PCR tubes on ice and the 500 bp amplicon was generated using the following reaction profile: 95° C.—30 s; (95° C.—0 s, 62° C.—12 s)—30 cycles; 72° C.—10 s.
Amplifications and analysis of PCR products were performed as described in the Example 12. […]

Taq DNA polymerase modified with N-etoxycarbonyl-2,3-dimethylmaleinimide: Recombinant Taq DNA polymerase reversibly inactivated by reaction with N-ethoxycarbonyl-2,3-dimethylmaleinimide in aqueous solution (preferred molar ratio 1/110)
performance in the “Fast PCR” application, compared with DNA polymerases from other vendors (FIG. 14): superior performance
primer extension time, compared with DNA polymerases from other vendors (FIG. 15): shorter
PCR sensitivity regarding the enzyme concentration, compared with DNA polymerases from other vendors (versus HotStarTaq, AmpliTaq Gold, FastStart Taq, FIG. 11): higher sensitivity
PCR sensitivity regarding the target DNA concentration, compared with DNA polymerases from other vendors (versus HotStarTaq, AmpliTaq Gold, FastStart Taq, FIG. 12): higher sensitivity
